≈ marks a conversion by molar mass, not a printed value.
How the values were obtained:
[1] = tested on: S. aureus ATCC 25923; assay type: cell-based, Staphylococcus aureus; settings: ATCC 25923, 18 h
Description: (§1) To compare the antimicrobial activity among the peptides produced by the method of Example 1, the inventors of the present invention measured the minimal growth inhibitory concentration (MIC), which is minimum concentration of the peptide not allowing any […] of bacterial cells.
(§2) Specifically, the bacterial strains described in the following Table 2 were purchased and cultured to a mid-log phase in MHB (Mueller Hinton Broth) medium. Then, after dilution to bacterial cell concentration of 2×10^5 cells/50 μl, the cells were inoculated to a microtiter plate (NUNC, USA). Thereafter, LL37-1, LL37-2, LL37-3 or LL37-4 peptide which has been synthesized in Example 1 above was subjected to serial dilution, ½ times for each, in a 96-well plate. After adding the peptides in an amount of 50 μl to the cell plate, the cells were cultured for 18 hours at 37° C. By using a microtiter plate reader (Merck Elisa reader, Germany), the absorbance was measured at a wavelength of 600 nm to determine the MIC value of each bacterial strain. As a control group, LL37 as a mother peptide was used and subjected to the same process as above to determine the MIC value of each strain.

[2] = tested on: L. monocytogenes KCTC 3710; assay type: cell-based, Listeria monocytogenes; settings: KCTC 3710, 18 h
Description: as §1, §2

[3] = tested on: A. baumannii #10; assay type: cell-based, Acinetobacter baumannii; settings: #10
Description: as §1, §2

[4] = tested on: A. baumannii #11; assay type: cell-based, Acinetobacter baumannii; settings: #11
Description: as §1, §2

[5] = tested on: A. baumannii #12; assay type: cell-based, Acinetobacter baumannii; settings: #12
Description: as §1, §2

[6] = tested on: A. baumannii #13; assay type: cell-based, Acinetobacter baumannii; settings: #13
Description: as §1, §2

[7] = tested on: A. baumannii #19; assay type: cell-based, Acinetobacter baumannii; settings: #19
Description: as §1, §2

[8] = tested on: A. baumannii #2; assay type: cell-based, Acinetobacter baumannii; settings: #2
Description: as §1, §2

[9] = tested on: A. baumannii #3; assay type: cell-based, Acinetobacter baumannii; settings: #3
Description: as §1, §2

[10] = tested on: A. baumannii #4; assay type: cell-based, Acinetobacter baumannii; settings: #4
Description: as §1, §2

[11] = tested on: A. baumannii #5; assay type: cell-based, Acinetobacter baumannii; settings: #5
Description: as §1, §2

[12] = tested on: A. baumannii #8; assay type: cell-based, Acinetobacter baumannii; settings: #8
Description: as §1, §2

[13] = tested on: A. baumannii #9; assay type: cell-based, Acinetobacter baumannii; settings: #9
Description: as §1, §2

[14] = tested on: A. baumannii KCTC 2508; assay type: cell-based, Acinetobacter baumannii
Description: as §1, §2

[15] = tested on: E. coli ATCC 25922; assay type: cell-based, Escherichia coli; settings: ATCC 25922, 18 h
Description: as §1, §2

[16] = tested on: P. aeruginosa ATCC 27853; assay type: cell-based, Pseudomonas aeruginosa; settings: ATCC 27853, 18 h
Description: as §1, §2

[17] = tested on: A. baumannii #10; experiment: Antibiofilm activity, Crystal violet staining; assay type: cell-based, Acinetobacter baumannii; settings: 24 hours
Method: (§3) To compare the antimicrobial activity among the peptides produced by the method of Example 1, the inventors of the present invention measured the biofilm inhibitory concentration value of the peptide for not allowing any dissociation of bacterial cells.
(§4) Specifically, among the bacterial strains described in the above Table 2, bacteria showing the most favorable biofilm forming were cultured to a mid-log phase in a medium with suitable composition. Then, after dilution to bacterial cell concentration of 1×10^6 cells/50 μl, the cells were inoculated to a microtiter plate. Thereafter, LL37, LL37-1, LL37-2, LL37-3 or LL37-4 peptide which has been synthesized in Example 1 above was diluted, 1/10 times for each, with 10 mM phosphate buffered physiological saline (PBS) in a 96-well plate. After adding the peptide (50 μl) to each well of the plate, the cells were cultured for 24 hours at 37° C. After removing the supernatant completely, the cells were fixed with 100% methanol for 15 minutes and stained for 1 hour with Crystal violet staining solution followed by rinsing for 3 times. Then, after dissolving in 95% ethanol, the absorbance was measured at a wavelength of 595 nm by using a microtiter plate reader to determine the biofilm minimal inhibitory concentration value of each bacterial strain.

[18] = tested on: A. baumannii #5; experiment: Antibiofilm activity, Crystal violet staining; assay type: cell-based, Acinetobacter baumannii; settings: 24 hours
Method: as §3, §4

[19] = tested on: A. baumannii KCTC 2508; experiment: Antibiofilm activity, Crystal violet staining; assay type: cell-based, Acinetobacter baumannii; settings: 24 hours
Method: as §3, §4

[20] = tested on: Acinetobacter baumannii KCTC 2508; experiment: Low vacuum scanning electron microscopy (membrane-disrupting property); assay type: cell-based; settings: peptide at MIC concentration, 30 minutes at 37° C.
Method: To specifically determine the degree of antimicrobial activity of the synthesized peptides of the present invention, the influence of mother peptide LL37 and homologous peptides LL37-1, LL37-2, LL37-3 and LL37-4 on bacteria membrane, i.e., membrane-disrupting property, was determined by low vacuum scanning electron microscopy.
Specifically, Acinetobacter baumannii KCTC 2508 cells were cultured to a mid-log phase in MHB medium, and then diluted to a cell concentration of 2×10^7 cells/ml in physiological saline containing 10% MHB medium. […] After that, by using 2.5% glutaraldehyde, the bacterial cells were fixed for 30 minutes at room temperature and then for 12 hours at 4° C. After carrying out washing with buffer, the cells were fixed again with […] and dehydrated in stepwise manner by using ethanol. After the dehydration, platinum coating was carried out and the cells were observed by low vacuum scanning electron microscopy.

SMILES: CC[C@H](C)[C@H](NC(=O)[C@H](CCCCN)NC(=O)[C@H](CCC(=O)O)NC(=O)[C@H](CCCCN)NC(=O)[C@H](CO)NC(=O)[C@H](CCCCN)NC(=O)[C@H](CCCNC(=N)N)NC(=O)[C@H](Cc1ccccc1)NC(=O)[C@H](Cc1ccccc1)NC(=O)[C@H](CC(=O)O)NC(=O)CNC(=O)[C@H](CC(C)C)NC(=O)[C@@H](N)CC(C)C)C(=O)NCC(=O)N[C@@H](CCCCN)C(=O)N[C@@H](CCC(=O)O)C(=O)N[C@@H](Cc1ccccc1)C(=O)N[C@@H](CCCCN)C(=O)N[C@@H](CCCNC(=N)N)C(=O)N[C@H](C(=O)N[C@H](C(=O)N[C@@H](CCC(N)=O)C(=O)N[C@@H](CCCNC(=N)N)C(=O)N[C@H](C(=O)N[C@@H](CCCCN)C(=O)N[C@@H](CC(=O)O)C(=O)N[C@@H](Cc1ccccc1)C(=O)N[C@@H](CC(C)C)C(=O)N[C@@H](CCCNC(=N)N)C(=O)N[C@@H](CC(N)=O)C(=O)N[C@@H](CC(C)C)C(=O)N[C@H](C(=O)N1CCC[C@H]1C(=O)N[C@@H](CCCNC(=N)N)C(=O)N[C@H](C(=O)N[C@@H](CCC(=O)O)C(=O)N[C@@H](CO)C(N)=O)[C@@H](C)O)C(C)C)[C@@H](C)CC)C(C)C)[C@@H](C)CC [LL37]
- Minimal inhibitory concentration [1]: 16 µM (≈ 71.9 µg/mL)
- Minimal inhibitory concentration [2]: 64 µM (≈ 288 µg/mL)
- Minimal inhibitory concentration [3]: 2 µM (≈ 8.98 µg/mL)
- Minimal inhibitory concentration [4]: 2 µM (≈ 8.98 µg/mL)
- Minimal inhibitory concentration [5]: 2 µM (≈ 8.98 µg/mL)
- Minimal inhibitory concentration [6]: 2 µM (≈ 8.98 µg/mL)
- Minimal inhibitory concentration [7]: 2 µM (≈ 8.98 µg/mL)
- Minimal inhibitory concentration [8]: 2 µM (≈ 8.98 µg/mL)
- Minimal inhibitory concentration [9]: 2 µM (≈ 8.98 µg/mL)
- Minimal inhibitory concentration [10]: 2 µM (≈ 8.98 µg/mL)
- Minimal inhibitory concentration [11]: 2 µM (≈ 8.98 µg/mL)
- Minimal inhibitory concentration [12]: 2 µM (≈ 8.98 µg/mL)
- Minimal inhibitory concentration [13]: 2 µM (≈ 8.98 µg/mL)
- Minimal inhibitory concentration of antimicrobial peptide ([14]; KCTC 2508): 2 µM
- Minimal inhibitory concentration ([14]; KCTC 2508, 18 h): 2 µM (≈ 8.98 µg/mL)
- Minimal inhibitory concentration [15]: 32 µM (≈ 144 µg/mL)
- Minimal inhibitory concentration [16]: 8 µM (≈ 35.9 µg/mL)
- Biofilm forming ability ([17]; peptide 2 μM): 62%
- Biofilm forming ability ([17]; peptide 4 μM): 58%
- Biofilm forming ability ([17]; peptide 8 μM): 54%
- Biofilm forming ability ([17]; peptide 16 μM): 53%
- Biofilm forming ability ([17]; peptide 32 μM): 13%
- Biofilm forming ability ([18]; peptide 2 μM): 97%
- Biofilm forming ability ([18]; peptide 4 μM): 74%
- Biofilm forming ability ([18]; peptide 8 μM): 40%
- Biofilm forming ability ([18]; peptide 16 μM): 36%
- Biofilm forming ability ([18]; peptide 32 μM): 15%
- Biofilm forming ability ([19]; peptide 2 μM): 42%
- Biofilm forming ability ([19]; peptide 4 μM): 39%
- Biofilm forming ability ([19]; peptide 8 μM): 33%
- Biofilm forming ability ([19]; peptide 16 μM): 23%
- Biofilm forming ability ([19]; peptide 32 μM): 10%
- membrane-disrupting property (scanning electron microscopy) [20]: disruption of bacteria membrane
